Source: patent US20250170098A1, “MOLECULAR JACKHAMMER FOR MECHANICAL DESTRUCTION OF CELLULAR STRUCTURE” (William Marsh Rice University, priority 2022, published 2025)

Tested on: A375 human melanoma tumors
Test: Treatment of A375 human melanoma tumors in nude mice
Assay type: in vivo, mouse
Method: Preparation of fresh solution of 200 μM Cy7.5-amine and 2.5% DMSO for in vivo studies. In the day of treatment, fresh solution of 200 μM Cy7.5-amine was prepared by diluting in PBS buffer the 8 mM Cy7.5-amine stock in DMSO, the final dilution contained 2.5% DMSO. As control 2.5% DMSO in PBS buffer was used.
Injection of A375 cells subcutaneously in athymic nude mice to generate the human melanoma tumor model. The A375 cells were culture as described before. Cells were harvested from sub-confluent plates, ˜90%, and fresh media was added to the cells the day before harvesting. The cells were harvested using 0.05% trypsin-EDTA (Gibco, 25-300-054). The harvested cells were re-dispersed in DMEM media without supplements at 50×10^6 cells mL^−1. The cell suspension was kept in ice. Then 100 μL of cells were injected per mouse (this was 5 million of cells per mouse) subcutaneously in the right flank of 7-8 weeks old female athymic nude mouse. Starting at day 2 the tumors were measured using a caliper. The typical volume of the tumors at day 2 was ˜33 mm^3. The volume of the tumor was calculated as: (½)×length×width×height. When the height was not possible to measure in the case of the tumors that were too small (usually <100 mm^3), then the tumor volume was calculated as: (½)×length×width^2.
Treatment of A375 tumors with Cy7.5-amine and NIR 730 nm light. The tumors were treated at day 3 (since 5 million initial cells were injected per tumor site) when the average tumors size was 35 mm^3. Forty mice were divided in 4 groups (number of mice per group, n=10): 1) Cy7.5-amine only 2) 2.5% DMSO only, 3) 2.5% DMSO+Light and 3) Cy7.5-amine+light. The day of treatment, fresh solutions (200 μM of Cy7.5-amine in PBS and controls 2.5% DMSO in PBS) were prepared as described before. The mice were anesthetized with isoflurane using a vaporizer. Then, each mouse was injected with 50 μL of 200 μM Cy7.5-amine solution in PBS or 2.5% DMSO, intratumorally. Then mice were kept for 25 min in the cages to let the Cy7.5-amine solution or DMSO solution interact with the tumors. Then, after the 25 min of incubation, the mice were treated (under anesthesia, using isoflurane) with 730 nm LED light source from Prizmatix applying a power intensity of 150 mWcm^−2 for 5 min (other power intensities were 210 mWcm^−2 for 5 min and 300 mWcm^−2 for 5 min as described in the treatment schedule in FIG. 27F). The light intensity was measured using an Optical Power Meter from Thorlabs, sensor model S302C and console model PM100D. When the treatment was finished the mice were put back into the cages and housed in the animal facility. The tumors sizes were measured every other day using a caliper in the first 20 days of the study and then in the late stage of the study twice a week.

CN1/C(=C\C=C2C=C(/C=C/C3=[N+](CCCCCC(=O)NCCCCCCN)c4ccc5ccccc5c4C3(C)C)CCC\2)C(C)(C)c2c1ccc1ccccc21 [Cy7.5-amine]
mice tumor free (8 μg intratumoral + light (300 mWcm^−2 of 730 nm LED for 5 min)): 50% | survival rate of mice with A375 tumors (8 μg intratumoral + light (300 mWcm^−2 of 730 nm LED for 5 min), day 120): 60% | effect on size of A375 tumors (150-215 mWCm^−2): mild therapeutic effect | effect on size of A375 tumors (300 mWCm^−2): strong effect on the regression of the tumor size | survival of mice with A375 tumors (Cy7.5-amine group without light): 20%
